Test results as given in patent US11261201B2 (priority 2018, dated 2022).
Converted amounts (≈) assume the structure as drawn. Where a name gives a salt, the structure may show the parent alone. Read-outs that look alike come from different tables or passages of the source.

Columns and labels:
[1] = tested on: H37RvMA; assay: Tuberculosis Alamar Blue/Resazurin assay (MIC); type: cell-based; conditions: Mycobacterium tuberculosis, H37RV, read-out: WT H37Rv MTB Activity
[2] = tested on: E. coli; assay: Gram negative MIC protocol (OD600, LB, 24 h); conditions: Escherichia coli
Experimental: (§1) Overnight bacterial cultures were grown in LB with no added antibiotics at 37° C. with shaking. A 1:1000 dilution of these cultures into LB was exposed to concentration gradients of compounds in 96-well plates (100 μL per well assay volume). Resulting plates were incubated at 37° C. for 24 h without shaking, and OD600 was measured at the end of the incubation. MICs were determined as the lowest concentrations at which OD600 remained at baseline.

[3] = tested on: A. baumannii; assay: Gram negative MIC protocol (OD600, LB, 24 h); conditions: Acinetobacter baumannii
Experimental: as §1

[4] = read-out: MIC E. coli delta-TolC LB Media, E. coli delta-TolC, LB media, OD600
[5] = read-out: MIC WT E. coli LB Media, WT E. coli, LB media, OD600
[6] = read-out: MIC A. baumannii LB Media, A. baumannii, LB media, 24 h, OD600
[7] = read-out: MIC E. coli delta-TolC LB Media, E. coli delta-TolC strain, LB media, 24 h, OD600
[8] = read-out: MIC WT E. coli LB Media, wild-type E. coli, LB media, 24 h, OD600
[9] = read-out: MIC A. baumannii LB Media

c1ccc(CNCCc2cccc3cccnc23)cc1 [B42]
MIC ([1]; WT H37Rv MTB): > 150 µM
MIC [2, 4]: > 150 µM
MIC [2, 5]: > 150 µM
MIC [3, 6]: > 150 µM

COc1ccccc1CNCCC1CCCCC1 [B253, 2-cyclohexyl-N-(2-methoxybenzyl)ethanamine hydrochloride]
MIC ([1]; WT H37Rv MTB): > 150 µM
MIC [2, 7]: 37 µM
MIC [2, 8]: 150 µM
MIC [3, 6]: > 150 µM

CC(CC1CCCCC1)NCc1ccccc1OCc1ncccn1 (stereo not shown) [B310]
MIC ([1]; WT H37Rv MTB): > 150 µM
MIC [2, 7]: 55 µM (≈ 18.7 µg/mL)
MIC [2, 8]: > 150 µM
MIC [3, 6]: > 150 µM

CC(CC1CCCCC1)NCc1ccccc1OCCOCCO (stereo not shown) [B274]
MIC ([1]; WT H37Rv MTB): > 150 µM
MIC [2, 7]: 7 µM (≈ 2.35 µg/mL)
MIC [2, 8]: 150 µM (≈ 50.3 µg/mL)
MIC [3, 6]: 150 µM (≈ 50.3 µg/mL)

CC(CC1CCCCC1)NCc1ccccc1OCc1ccccc1C(C)C (stereo not shown) [B458, 1-cyclohexyl-N-(2-((2-isopropylbenzyl)oxy)benzyl)propan-2-amine]
MIC ([1]; WT H37Rv MTB): 10 µM (≈ 3.8 µg/mL)
MIC [2, 4]: 4 µM (≈ 1.52 µg/mL)
MIC [2, 5]: > 150 µM
MIC [3, 6]: 20 µM (≈ 7.59 µg/mL)

CC(CC1CCCCC1)NCc1ccccc1OCC1CCOCC1 (stereo not shown) [B281]
MIC ([1]; WT H37Rv MTB): 91 µM (≈ 31.4 µg/mL)
MIC [2, 7]: 4 µM (≈ 1.38 µg/mL)
MIC [2, 8]: > 150 µM
MIC [3, 6]: 91 µM (≈ 31.4 µg/mL)

CC(CC1CCCCC1)NCc1ccccc1OCc1nccs1 (stereo not shown) [B240]
MIC ([1]; WT H37Rv MTB): 150 µM (≈ 51.7 µg/mL)
MIC [2, 7]: 7 µM (≈ 2.41 µg/mL)
MIC [2, 8]: > 150 µM
MIC [3, 6]: > 150 µM

CCC(CC1CCCCC1)NCc1ccccc1F (stereo not shown) [B166, 1-cyclohexyl-N-(2-fluorobenzyl)butan-2-amine hydrochloride]
MIC ([1]; WT H37Rv MTB): > 150 µM
MIC [2, 4]: 250 µM
MIC [2, 5]: > 300 µM
MIC [3, 6]: 300 µM

CC(CC1CCCCC1)NCc1ccccc1OCCc1ccccc1F (stereo not shown) [B429, 1-cyclohexyl-N-(2-(2-fluorophenethoxy)benzyl)propan-2-amine]
MIC ([1]; WT H37Rv MTB): 20.2 µM (≈ 7.46 µg/mL)
MIC [2, 4]: 2 µM (≈ 0.739 µg/mL)
MIC [2, 5]: 55 µM (≈ 20.3 µg/mL)
MIC [3, 6]: 33 µM (≈ 12.2 µg/mL)

OC1(CCNCc2ccccc2)CCCCC1 [B187]
MIC ([1]; WT H37Rv MTB): > 150 µM
MIC [2, 4]: > 300 µM
MIC [2, 5]: > 300 µM
MIC [3, 6]: > 300 µM

CC(C)(CC1CCCCCC1)NCc1ccccc1 [B92]
MIC ([1]; WT H37Rv MTB): > 150 µM
MIC [2, 4]: > 150 µM
MIC [2, 5]: > 150 µM
MIC [3, 6]: > 150 µM

COC(=O)c1ccc(COc2ccccc2CNC(C)CC2CCCCC2)o1 (stereo not shown) [B252]
MIC ([1]; WT H37Rv MTB): 150 µM (≈ 57.8 µg/mL)
MIC [2, 7]: 4 µM (≈ 1.54 µg/mL)
MIC [2, 8]: > 150 µM
MIC [3, 6]: 150 µM (≈ 57.8 µg/mL)

CC(CC1CCCCC1)NCc1ccccc1CS(=O)(=O)NC1CCN(C)CC1 (stereo not shown) [B432, 1-(2-(((1-cyclohexylpropan-2-yl)amino)methyl)phenyl)-N-(1-methylpiperidin-4-yl)methanesulfonamide]
MIC ([1]; WT H37Rv MTB): > 150 µM
MIC [2, 4]: 33 µM (≈ 13.9 µg/mL)
MIC [2, 5]: 150 µM (≈ 63.2 µg/mL)
MIC [3, 6]: > 150 µM

CC(CC1CCCCC1)NCc1ccccc1OCC(=O)N1CCOC(C)C1 (stereo not shown) [B316]
MIC ([1]; WT H37Rv MTB): > 150 µM
MIC [2, 7]: 7 µM (≈ 2.72 µg/mL)
MIC [2, 8]: > 150 µM
MIC [3, 6]: > 150 µM

CC(CC1CCCCC1)NCc1ccccc1OC1CC2CCC1(C)C2(C)C (stereo not shown) [B326]
MIC ([1]; WT H37Rv MTB): 55 µM (≈ 21.1 µg/mL)
MIC [2, 7]: 12 µM (≈ 4.6 µg/mL)
MIC [2, 8]: > 150 µM
MIC [3, 6]: > 150 µM

c1cc(CNCCC2CCCCC2)c2cc[nH]c2c1 [B357]
MIC ([1]; WT H37Rv MTB): 91 µM (≈ 23.3 µg/mL)
MIC [2, 7]: 20 µM (≈ 5.13 µg/mL)
MIC [2, 8]: 150 µM (≈ 38.5 µg/mL)
MIC [3, 6]: 91 µM (≈ 23.3 µg/mL)

FC1(F)CCC(CCNCc2ccccc2)CC1 [B212, N-benzyl-2-(4,4-difluorocyclohexyl)ethanamine hydrochloride]
MIC ([1]; WT H37Rv MTB): > 150 µM
MIC [2, 7]: > 300 µM
MIC [2, 8]: > 300 µM
MIC [3, 6]: > 300 µM

COC(=O)CCCOc1ccccc1CNC(C)CC1CCCCC1 (stereo not shown) [B276]
MIC ([1]; WT H37Rv MTB): > 150 µM
MIC [2, 7]: 4 µM (≈ 1.39 µg/mL)
MIC [2, 8]: > 150 µM
MIC [3, 6]: > 150 µM

Cc1noc(C)c1CC(C)NCc1ccccc1 (stereo not shown) [B26]
MIC [1]: > 150 µM
MIC [2, 4]: > 150 µM
MIC [2, 5]: > 150 µM
MIC [3, 6]: > 150 µM

CC(CC1CCCCC1)NCc1ccccc1OCC(=O)NCC1CCCO1 (stereo not shown) [B336]
MIC ([1]; WT H37Rv MTB): > 150 µM
MIC [2, 7]: 33 µM (≈ 12.8 µg/mL)
MIC [2, 8]: > 150 µM
MIC [3, 6]: > 150 µM

CC(CC1CCCCC1)NCc1ccccc1CCC(=O)O (stereo not shown) [B401, 3-(2-((1-cyclohexylpropan-2-ylamino)methyl)phenyl)propanoic acid trifluoroacetate]
MIC [1]: > 150 µM
MIC [2, 4]: 33 µM
MIC [2, 5]: > 150 µM
MIC [3, 9]: > 150 µM

C[C@H](CC1CCCCC1)NCc1ccccc1 [B95]
MIC [1]: 55 µM (≈ 12.7 µg/mL)
MIC [2, 4]: > 150 µM
MIC [2, 5]: > 150 µM
MIC [3, 9]: > 150 µM

c1ccc(CNC(CC2CCCCC2)c2ccccc2)cc1 (stereo not shown) [B169, N-benzyl-2-cyclohexyl-1-phenylethanamine hydrochloride]
MIC ([1]; WT H37Rv MTB): > 150 µM
MIC [2, 4]: 74 µM
MIC [2, 5]: > 300 µM
MIC [3, 6]: > 300 µM

CC(CC1CCCCC1)NCc1ccccc1NCc1ccccc1F (stereo not shown) [B397, 2-(((1-cyclohexylpropan-2-yl)amino)methyl)-N-(2-fluorobenzyl)aniline dihydrochloride]
MIC ([1]; WT H37Rv MTB): 12.2 µM
MIC [2, 7]: 5 µM
MIC [2, 8]: > 150 µM
MIC [3, 6]: > 150 µM

CC(CC1CCCCC1)NCc1ccccc1OC1CCCCC1 (stereo not shown) [B387, 1-cyclohexyl-N-(2-(cyclohexyloxy)benzyl)propan-2-amine]
MIC ([1]; WT H37Rv MTB): 33.4 µM (≈ 11 µg/mL)
MIC [2, 7]: 3 µM (≈ 0.989 µg/mL)
MIC [2, 8]: 91 µM (≈ 30 µg/mL)
MIC [3, 6]: 55 µM (≈ 18.1 µg/mL)

CC(CC1CCCCC1)NCc1ccccc1OCc1ccccc1Oc1ccccc1 (stereo not shown) [B463, 1-cyclohexyl-N-(2-((2-phenoxybenzyl)oxy)benzyl)propan-2-amine]
MIC ([1]; WT H37Rv MTB): 17 µM (≈ 7.3 µg/mL)
MIC [2, 4]: 4 µM (≈ 1.72 µg/mL)
MIC [2, 5]: > 150 µM
MIC [3, 6]: > 150 µM

CN(C)c1ccccc1CNCCC1CCCCC1 [B237, 2-((2-cyclohexylethylamino)methyl)-N,N-dimethylaniline hydrochloride]
MIC ([1]; WT H37Rv MTB): > 150 µM
MIC [2, 7]: 170 µM
MIC [2, 8]: > 300 µM
MIC [3, 6]: > 300 µM

CC(CC1CCCCC1)NCc1ccccc1OCCOCC(F)(F)C(F)(F)F (stereo not shown) [B262]
MIC ([1]; WT H37Rv MTB): 55 µM (≈ 23.3 µg/mL)
MIC [2, 7]: 12 µM (≈ 5.08 µg/mL)
MIC [2, 8]: 150 µM (≈ 63.5 µg/mL)
MIC [3, 6]: 91 µM (≈ 38.5 µg/mL)

Cc1ccccc1CNCCC1=CCCCC1 [B13, 2-(cyclohex-1-en-1-yl)-N-(2-methylbenzyl)ethan-1-amine]
MIC ([1]; WT H37Rv MTB): > 150 µM
MIC [2, 4]: 55 µM (≈ 12.6 µg/mL)
MIC [2, 5]: 90 µM (≈ 20.6 µg/mL)
MIC [3, 6]: 150 µM (≈ 34.4 µg/mL)

C[C@H](NCc1ccccc1)C1CCCc2ccccc21 (stereo partly shown) [B113]
MIC ([1]; WT H37Rv MTB): > 150 µM
MIC [2, 4]: > 150 µM
MIC [2, 5]: > 150 µM
MIC [3, 6]: > 150 µM

COc1cc2c(cc1OC)CN(CCNCc1ccccc1)CC2 [B147]
MIC ([1]; WT H37Rv MTB): > 150 µM
MIC [2, 4]: > 150 µM
MIC [2, 5]: > 150 µM
MIC [3, 6]: > 150 µM

COC(=O)c1occc1COc1ccccc1CNC(C)CC1CCCCC1 (stereo not shown) [B265]
MIC ([1]; WT H37Rv MTB): 91 µM (≈ 35.1 µg/mL)
MIC [2, 7]: 3 µM (≈ 1.16 µg/mL)
MIC [2, 8]: 150 µM (≈ 57.8 µg/mL)
MIC [3, 6]: 91 µM (≈ 35.1 µg/mL)

CC(Cc1ccccn1)NCc1ccccc1 (stereo not shown) [B75]
MIC [1]: > 150 µM
MIC [2, 4]: > 150 µM
MIC [2, 5]: > 150 µM
MIC [3, 6]: > 150 µM

Fc1ccc(C2CC2NCc2ccccc2)cc1F (stereo in doubt) [B211, (1S,2R)-N-benzyl-2-(3,4-difluorophenyl)cyclopropanamine hydrochloride]
MIC [1]: > 150 µM
MIC [2, 7]: 300 µM
MIC [2, 8]: > 300 µM
MIC [3, 6]: 300 µM

c1ccc(CNC(CC2CCCCC2)C2CC2)cc1 (stereo not shown) [B167, N-benzyl-2-cyclohexyl-1-cyclopropylethanamine]
MIC ([1]; WT H37Rv MTB): > 150 µM
MIC [2, 4]: > 300 µM
MIC [2, 5]: > 300 µM
MIC [3, 6]: > 300 µM

c1ccc(CNC2CCC2c2ccccc2)cc1 (stereo not shown) [B176]
MIC ([1]; WT H37Rv MTB): > 150 µM
MIC [2, 4]: > 300 µM
MIC [2, 5]: > 300 µM
MIC [3, 6]: > 300 µM

CC(CC1CCCCC1)NCc1ccccc1OCC(=O)NC(=O)NC(C)(C)C (stereo not shown) [B325]
MIC ([1]; WT H37Rv MTB): 91 µM (≈ 36.7 µg/mL)
MIC [2, 7]: 4 µM (≈ 1.61 µg/mL)
MIC [2, 8]: > 150 µM
MIC [3, 6]: 150 µM (≈ 60.5 µg/mL)
